Measurements reported in PubChem BioAssay AID2060890 (Molecular Pharmacology Branch, DTP, NCI, 2025).
Each block holds one compound with its values, some of them ahead of it.

System: LG0703-F948-PDC complex spheroid viability
Assay: Anticancer human tumor LG0703-F948-PDC patient-derived lung adenocarcinoma cell line growth inhibition [RAS]
Conditions: for viability, T/C: stronger effect = lower value
Description: RAS pathway inhibitors in Combinations in Complex Spheroids
A high-throughput screen of multi-cell type tumor spheroids was designed to identify active combinations of RAS pathway inhibitors and targeted small molecules. Complex spheroids include a stromal component modeled by human endothelial cells (HUVEC) and fibroblasts modeled by human mesenchymal stem cells (MSCs). The concentration ranges selected for each drug and investigational agent were based upon clinically achievable concentrations if the clinical Cmax of the agent was known.
Compounds. The drugs and investigational agents: abemaciclib (NSC768073), cobimetinib (NSC768068), divarasib (GDC6063, NSC841802), docetaxel (NSC628503), GDC-1971 (RLY-1971, NSC841576), gemcitabine (NSC613327), inavolisib (NSC800729), ipatasertib (NSC767898), KB-0742 (NSC834161), MRTX-1133 (NSC836407), osimertinib (NSC779217), RMC-4630 (NSC839698), RMC-6236 (NSC851965), RMC-6291 (NSC852671), Ro-3306 (NSC812927), sapanisertib (NSC764658), SN-38 (NSC673596), staurosporine (NSC755774), SY5609 (NSC837396), and tovorafenib (DAY101, NSC766906), were obtained from the National Cancer Institute (NCI) Developmental Therapeutics Program Chemical Repository. The FDA-approved anticancer drug set is available from the NCI Developmental Therapeutics Program. […] The stock solutions were prepared in dimethyl sulfoxide (DMSO, Sigma-Aldrich, St. Louis, MO, cat. D2650) at 800-fold the tested concentration and stored at -70 degrees C prior to their use. All drugs and investigational agents were tested over a range starting from a high concentration at or near the clinical Cmax and decreasing in half-log increments. If the clinical Cmax for an agent had not been determined, the highest concentration tested was 10 microM.
Cell Culture. All cells were maintained in an incubator at 37 degrees C and 5% CO2 with 95% humidity. The PDC lines were cultured according to standard operating procedures established by the NCI PDMR. All PDCs were thawed and cultured in Matrigel-coated flasks prepared with a working solution of 1X Ham's F-12 nutrient mix, without supplementation (Invitrogen, Waltham, MA, cat. 11765054), 100 U/mL penicillin-streptomycin (Invitrogen, cat. 15140122), and 2.5% Matrigel (Corning Inc., Corning, NY, cat. 354248) for the first three passages. The 362531-283-R-J2-PDC and 782815-120-R-J1-PDC lines were cultured in 6C/Colon 1B media, which includes advanced DMEM/F-12 (Thermo Fisher Scientific, cat. 12634028), 10 mM HEPES (Thermo Fisher Scientific, cat. 15630080), 1X GlutaMAX supplement (Thermo Fisher Scientific, cat. 35050061), 0.1 mg/mL primocin (InvivoGen, San Diego, CA, cat. ant-pm-2), 10% defined fetal bovine serum, heat inactivated (HyClone Laboratories Inc., Logan, UT, cat. SH30070.03HI), 50% L-WRN conditioned media (ATCC, cat. CRL-3276), 1.25 mM N-Acetyl-L-cysteine (Sigma-Aldrich, cat. A9165), 10 mM nicotinamide (Sigma-Aldrich, cat. N0636), 1X B-27 supplement (Thermo Fisher Scientific, cat. 17504044), 1X N-2 supplement (Thermo Fisher Scientific, cat. 17502048), 50 ng/mL human EGF (Thermo Fisher Scientific, cat. PHG0311), and 10 microM Y-27632 dihydrochloride (Tocris Bioscience, cat. 1254). The K12877-001-R-J1-PDC line was cultured in 6I media, which includes all 6C/Colon 1B media plus 10 ng/mL human FGF-10 (PeproTech, cat. 100-26), 1 ng/mL human FGF-2 (PeproTech, cat. 100-18B), 1 µM prostaglandin E2 (Tocris Bioscience, cat. 2296), […] hydrocortisone (Sigma-Aldrich, cat. H4001), and […] bovine insulin (Sigma-Aldrich, cat. I6634). The K86415-001-R-J1-PDC line was cultured in 6D media, which includes all 6C/Colon 1B media components minus the L-WRN conditioned media. The 485176-168-R4-J1-PDC was cultured in PANC media, which includes all 6C/Colon 1B media plus 100 ng/mL human FGF-10 (PeproTech, cat. 100-26), 500 nM SB-431542 (Selleckchem, cat. S1067), and 10 nM gastrin (Tocris Bioscience, cat. 3006). […]
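Note: spheroids exposed to agents for 7 days.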
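Throughout, for viability, T/C: 100% = DMSO vehicle wells.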

IC50 (curve of first compound, second compound 0.000949 µM): > 300 nM | IC50 (curve of first compound, second compound 0.003 µM): > 300 nM | IC50 (curve of first compound, second compound 0.00949 µM): > 300 nM | IC50 (curve of first compound, second compound 0.03 µM): > 300 nM | IC50 (curve of first compound, second compound 0.0949 µM): > 300 nM | IC50 (curve of first compound, second compound 0.3 µM): < 0.949 nM
SMILES: CC1(C)CCC(Nc2ncc(C(F)(F)F)c(-c3c[nH]c4c(P(C)(C)=O)c(C#N)ccc34)n2)CN1 (centres undefined) + CCn1c(-c2cccnc2C(C)OC)c2c3cc(ccc31)N1CCOC(CC(NC(=O)C(C(C)C)N(C)C(=O)C3(F)CCN(C(=O)C#CC(C)(C)N(C)C)CC3)C(=O)N3CCCC(N3)C(=O)OCC(C)(C)C2)C1
viability, T/C (second compound 0.000949 µM, first compound 0.000949 µM): 83.4% | viability, T/C (second compound 0.000949 µM, first compound 0.003 µM): 70.4% | viability, T/C (second compound 0.000949 µM, first compound 0.00949 µM): 67.1% | viability, T/C (second compound 0.000949 µM, first compound 0.03 µM): 60.1% | viability, T/C (second compound 0.000949 µM, first compound 0.0949 µM): 67.3% | viability, T/C (second compound 0.000949 µM, first compound 0.3 µM): 56.5% | viability, T/C (second compound 0.003 µM, first compound 0.000949 µM): 89.2% | viability, T/C (second compound 0.003 µM, first compound 0.003 µM): 84.9% | viability, T/C (second compound 0.003 µM, first compound 0.00949 µM): 58.1% | viability, T/C (second compound 0.003 µM, first compound 0.03 µM): 62.2% | viability, T/C (second compound 0.003 µM, first compound 0.0949 µM): 61.5% | viability, T/C (second compound 0.003 µM, first compound 0.3 µM): 68.7% | viability, T/C (second compound 0.00949 µM, first compound 0.000949 µM): 75% | viability, T/C (second compound 0.00949 µM, first compound 0.003 µM): 72.7% | viability, T/C (second compound 0.00949 µM, first compound 0.00949 µM): 77.8% | viability, T/C (second compound 0.00949 µM, first compound 0.03 µM): 57.7% | viability, T/C (second compound 0.00949 µM, first compound 0.0949 µM): 64.8% | viability, T/C (second compound 0.00949 µM, first compound 0.3 µM): 67.2% | viability, T/C (second compound 0.03 µM, first compound 0.000949 µM): 86.5% | viability, T/C (second compound 0.03 µM, first compound 0.003 µM): 79.5% | viability, T/C (second compound 0.03 µM, first compound 0.00949 µM): 62.6% | viability, T/C (second compound 0.03 µM, first compound 0.03 µM): 66.1% | viability, T/C (second compound 0.03 µM, first compound 0.0949 µM): 59.4% | viability, T/C (second compound 0.03 µM, first compound 0.3 µM): 60.4% | viability, T/C (second compound 0.0949 µM, first compound 0.000949 µM): 82.9% | viability, T/C (second compound 0.0949 µM, first compound 0.003 µM): 68.2% | viability, T/C (second compound 0.0949 µM, first compound 0.00949 µM): 65% | viability, T/C (second compound 0.0949 µM, first compound 0.03 µM): 55% | viability, T/C (second compound 0.0949 µM, first compound 0.0949 µM): 65.7% | viability, T/C (second compound 0.0949 µM, first compound 0.3 µM): 63.7% | viability, T/C (second compound 0.3 µM, first compound 0.000949 µM): 39.1% | viability, T/C (second compound 0.3 µM, first compound 0.003 µM): 49.9% | viability, T/C (second compound 0.3 µM, first compound 0.00949 µM): 48.5% | viability, T/C (second compound 0.3 µM, first compound 0.03 µM): 46.1% | viability, T/C (second compound 0.3 µM, first compound 0.0949 µM): 48.8% | viability, T/C (second compound 0.3 µM, first compound 0.3 µM): 46.2%

IC50 (curve of compound): 10.1 nM [middle of 4 runs]
SMILES: C=CC(=O)Nc1cc(Nc2nccc(-c3cn(C)c4ccccc34)n2)c(OC)cc1N(C)CCN(C)C
viability, T/C (compound 0.00316 µM): 90.6% [middle of 4 runs] | viability, T/C (compound 0.01 µM): 50.2% [middle of 4 runs] | viability, T/C (compound 0.0316 µM): 21.9% [middle of 4 runs] | viability, T/C (compound 0.1 µM): 16.2% [middle of 4 runs] | viability, T/C (compound 0.316 µM): 17.2% [middle of 4 runs] | viability, T/C (compound 1 µM): 12.8% [middle of 4 runs]
